Data on 16 compounds can be found in PubChem BioAssay (NCI).

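These data come from cells grown in 96-well plates and exposed to compound for 48 hours at five concentrations. GI50: concentration for 50% inhibition of growth. The concentration for full growth arrest is given as TGI.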 Some results are limits rather than exact numbers.

One test relates to NCI-H226 lung. In words: inhibition of tumour cell growth, NCI panel, 48 h.
`Fc1ccc(C2SCc3nc4ccccc4n32)c(F)c1` (configuration not stated): the TGI is above 100 µM.
On to `Fc1ccc(/C=N/n2c(-c3ccc(F)c(Cl)c3)nn(CNc3ccccc3C(F)(F)F)c2=S)cc1`, for which the GI50 was 69.5 µM and the TGI is above 100 µM.
The like results for `CN[C@@H](C)C(=O)N[C@H](C(=O)N1CCC[C@H]1C(=O)Nc1sc(-c2ncco2)nc1-c1ccccc1)C1CCCCC1` were, in that order, above 100 µM and above 100 µM.
The like results for `CC(=O)OC12C=C(C)C(C(C)C1)C1C(=O)N(CCN3CCOCC3)C(=O)C12` (configuration not stated) were, in that order, above 100 µM and above 100 µM.
The like results for `CC1=C2[C@@H](CC1)[C@]1(C)O[C@@](c3ccccc3)(C[C@H]1OC(=O)CO)[C@H]2OC(=O)/C=C/c1ccccc1` were, in that order, 16.6 µM and 37.2 µM.
On to `NC(=O)c1csc(C2OC(CO)C(O)C2O)n1` (configuration not stated), for which the GI50 was 99.2 µM and the TGI is above 9450 µM.
In the same order, the values of `CCCN(CCS(C)(=O)=O)Cc1ccc(-c2ccc3ncnc(Nc4ccc(OCc5cccc(F)c5)c(Cl)c4)c3c2)o1` are above 25 µM and above 25 µM.
The like results for `CC(C)C[C@H](NC(=O)CNC(=O)c1cc(Cl)ccc1Cl)B1OC(=O)CC(CC(=O)O)(C(=O)O)O1` (some centres not stated) were, in that order, 0.0141 µM and 0.0325 µM.
The like results for `CCCCCCCCCCCCCCCCCC[n+]1ccc2c(C)c3c(c(C)c2c1)c1cc(O)ccc1n3CC` were, in that order, 1.88 µM and 8.68 µM.
As for `CCc1ccc2c(c1)N(CCO)C1=C(C(=O)OC1)C2c1cccc(Br)c1` (configuration not stated), the GI50 is 0.988 µM and the TGI stood at 13.2 µM.
The like results for `CN(C)CCCn1c(=O)c2ccccc2c2ccccc21` were, in that order, 12.1 µM and 38.5 µM.
In the same order, the values of `O=c1[nH]c(=O)n(C2CC(O)C(COP(=O)(OCc3ccc([N+](=O)[O-])o3)N(CCCCCl)CC(O)CO)O2)cc1F` (configuration not stated) are 0.157 µM and above 55.2 µM.
Compound `O=C1OC(=O)C(=C\c2ccc3c(c2)OCO3)/C1=C/c1ccc2c(c1)OCO2` displayed a TGI above 100 µM.
Regarding `CC(C)NCCCn1c(Sc2cc3c(cc2I)OCO3)nc2c(N)ncnc21`, the GI50 is 0.767 µM and the TGI came out at 79.4 µM.
Consider `CC1(O)C=CC(=O)C=C1`, for which the TGI was above 100 µM.
As for `CN1C(=O)N(C)C2C1NN=c1s/c(=C\c3ccc(C(F)(F)F)cc3)c(=O)n12` (configuration not stated), the GI50 is 27 µM and the TGI is above 100 µM.

A further test relates to SNB-19 CNS. The test is described as follows: inhibition of tumour cell growth, NCI panel, 48 h.
For the compound `Fc1ccc(C2SCc3nc4ccccc4n32)c(F)c1` (configuration not stated), the TGI is above 100 µM.
As to `Fc1ccc(/C=N/n2c(-c3ccc(F)c(Cl)c3)nn(CNc3ccccc3C(F)(F)F)c2=S)cc1`, the GI50 is above 100 µM and the TGI was above 100 µM.
Regarding `CN[C@@H](C)C(=O)N[C@H](C(=O)N1CCC[C@H]1C(=O)Nc1sc(-c2ncco2)nc1-c1ccccc1)C1CCCCC1`, the GI50 is 30 µM and the TGI came to 98.7 µM.
For the compound `CC(=O)OC12C=C(C)C(C(C)C1)C1C(=O)N(CCN3CCOCC3)C(=O)C12` (configuration not stated), the GI50 is above 100 µM and the TGI is above 100 µM.
Turning to `CC1=C2[C@@H](CC1)[C@]1(C)O[C@@](c3ccccc3)(C[C@H]1OC(=O)CO)[C@H]2OC(=O)/C=C/c1ccccc1`, the GI50 was 22.1 µM and the TGI was 59.8 µM.
The like results for `NC(=O)c1csc(C2OC(CO)C(O)C2O)n1` (configuration not stated) were, in that order, 65.7 µM and 7290 µM.
The like results for `CCCN(CCS(C)(=O)=O)Cc1ccc(-c2ccc3ncnc(Nc4ccc(OCc5cccc(F)c5)c(Cl)c4)c3c2)o1` were, in that order, above 25 µM and above 25 µM.
The like results for `CC(C)C[C@H](NC(=O)CNC(=O)c1cc(Cl)ccc1Cl)B1OC(=O)CC(CC(=O)O)(C(=O)O)O1` (some centres not stated) were, in that order, 0.209 µM and above 100 µM.
Regarding `CCCCCCCCCCCCCCCCCC[n+]1ccc2c(C)c3c(c(C)c2c1)c1cc(O)ccc1n3CC`, the GI50 was 1.79 µM and the TGI amounted to 6.36 µM.
In the same order, the values of `CCc1ccc2c(c1)N(CCO)C1=C(C(=O)OC1)C2c1cccc(Br)c1` (configuration not stated) are 0.806 µM and 18.4 µM.
In the same order, the values of `CN(C)CCCn1c(=O)c2ccccc2c2ccccc21` are 23.3 µM and above 100 µM.
The like results for `O=c1[nH]c(=O)n(C2CC(O)C(COP(=O)(OCc3ccc([N+](=O)[O-])o3)N(CCCCCl)CC(O)CO)O2)cc1F` (configuration not stated) were, in that order, above 20.3 µM and above 100 µM.
The compound `O=C1OC(=O)C(=C\c2ccc3c(c2)OCO3)/C1=C/c1ccc2c(c1)OCO2` had a TGI above 100 µM.
Take `CC(C)NCCCn1c(Sc2cc3c(cc2I)OCO3)nc2c(N)ncnc21`: the GI50 was 0.646 µM and the TGI was above 100 µM.
As for `CC1(O)C=CC(=O)C=C1`, the TGI came out at 70.3 µM.
As for `CN1C(=O)N(C)C2C1NN=c1s/c(=C\c3ccc(C(F)(F)F)cc3)c(=O)n12` (configuration not stated), the GI50 is 2.62 µM and the TGI is above 100 µM.

A further test has as its system A498 renal. The test is described as follows: inhibition of tumour cell growth, NCI panel, 48 h.
Take `Fc1ccc(C2SCc3nc4ccccc4n32)c(F)c1` (configuration not stated): the TGI is above 100 µM.
Take `Fc1ccc(/C=N/n2c(-c3ccc(F)c(Cl)c3)nn(CNc3ccccc3C(F)(F)F)c2=S)cc1`: the GI50 is 12.5 µM and the TGI was found to be 63.7 µM.
The like results for `CN[C@@H](C)C(=O)N[C@H](C(=O)N1CCC[C@H]1C(=O)Nc1sc(-c2ncco2)nc1-c1ccccc1)C1CCCCC1` were, in that order, 26.6 µM and above 88 µM.
The like results for `CC(=O)OC12C=C(C)C(C(C)C1)C1C(=O)N(CCN3CCOCC3)C(=O)C12` (configuration not stated) were, in that order, above 100 µM and above 100 µM.
With `CC1=C2[C@@H](CC1)[C@]1(C)O[C@@](c3ccccc3)(C[C@H]1OC(=O)CO)[C@H]2OC(=O)/C=C/c1ccccc1`, the GI50 was 0.0966 µM and the TGI was found to be 0.478 µM.
`NC(=O)c1csc(C2OC(CO)C(O)C2O)n1` (configuration not stated) had a TGI above 9690 µM.
With `CCCN(CCS(C)(=O)=O)Cc1ccc(-c2ccc3ncnc(Nc4ccc(OCc5cccc(F)c5)c(Cl)c4)c3c2)o1`, the GI50 is above 13.6 µM and the TGI was above 25 µM.
The like results for `CC(C)C[C@H](NC(=O)CNC(=O)c1cc(Cl)ccc1Cl)B1OC(=O)CC(CC(=O)O)(C(=O)O)O1` (some centres not stated) were, in that order, 0.0347 µM and 0.164 µM.
